# Data as given in patent US20160264593A1 (priority 2013, published 2016).
# Like-named read-outs stand apart in the source and are kept apart here.
# Assay: Pharmacokinetic study of 153 (and metabolite endothal) in SD rats, iv and po; plasma, liver, brain
# Format: in vivo
# Conditions: for 153 plasma concentration (title) / Liver concentration: PO per title; for MRT last: read-out: MRT (0-t)
# Description: The blood, liver and brain tissue samples were collected at predetermined times from rats. […] Compound were diluted shortly before use in 4% sodium bicarbonate for sterile injection (this is the standard pediatric solution of NaHCO3 with a pH of about 8.5).
# Compound 153 was freshly prepared by diluting the drugs shortly before use in 4% sodium bicarbonate for sterile injection (this is the standard pediatric solution of NaHCO3 with a pH of about 8.5). The final concentrations of 153 solutions were 0.25 mg/mL. The 153 solutions were administered via iv or po route at dose volume of 5 ml/kg according to the latest body weight. Compound 157 was freshly prepared by diluting the drugs shortly before use in 4% sodium bicarbonate for sterile injection (this is the standard pediatric solution of NaHCO3 with a pH of about 8.5). The final concentrations of […] solutions were 0.3 mg/mL. The 157 solutions were administered via iv or po route at dose volume of 5 ml/kg according to the latest body weight.
# Twelve (12) female SD rats per group were dosed by iv with 153 or 157. The rats were fasted overnight prior to dosing, with free access to water. Foods were withheld for 2 hours post-dose. Blood, liver and brain tissue samples in two animals each group were collected at each time point, within 10% of the scheduled time for each time point. Two extra animals were used for analytic method development.
# Blood (>0.3 mL) were collected via aorta abdominalis in anaesthetic animals into tubes containing heparin at 15 min, 1, 2, 6, 10 and 24 hours after iv administration. Liver and brain tissues were collected immediately after animal death. The liver and brain tissues were excised and rinsed with cold saline to avoid blood residual. Upon collection, each sample was placed on ice and the blood samples were subsequently centrifuged (4° C., 11000 rpm, 5 min) to separate plasma. The obtained plasma, liver and brain tissue samples were stored at −70° C. until LC-MS/MS analysis.
# Two (2) female SD rats per group were dosed by po with 153 or 157. The rats were fasted overnight prior to dosing, with free access to water. Foods were withheld for 2 hours post-dose. Blood samples (>0.3 mL) were collected via aorta abdominalis in anaesthetic animals into tubes containing heparin at 30 min, 1, 2, 6, 10 and 24 hours after po administration.
# To each sample, 20 μL IS-D (for blank samples, 20 μL acetonitrile:water (1:1) was added) and 300 μl acetonitrile was added. The sample mixture was vortexed for approximately 3 min. After centrifugation at 10000 rpm for 5 min at 4° C., 100 μL of the upper layer was transferred to a new tube and added 200 μL 0.4% formic acid in water (pH 6.0). The mixture was vortexed for approximately 3 min before injected onto the LC/MS/MS system for analysis.
# On the day of the assay, the frozen liver and brain samples were thawed unassisted at room temperature. An about 200 mg weighed sample of each thawed tissue was placed into a plastic tube with water (0.6 mL) to facilitate homogenization. Tissue processing was conducted using a homogenizer for approximately 1 min, 200 μl homogenate was transferred into a fresh Eppendorf tube. To each tube, 50 μL IS-D was added and mixed. Then 600 μl acetonitrile was added and the sample mixture was vortexed for approximately 3 min. After centrifugation at 10000 rpm for 5 min at 4° C., 400 μL of the upper layer was transferred to a new tube and evaporate the supernatant to dryness at 35° C. Reconstitute the residue with 200 μL of 0.4% formic acid in water (pH6.0), and vortex for 3 min, submit for LC-MS/MS analysis.
# Frozen unknown plasma samples were completely thawed at room temperature and vortexed thoroughly. With a pipette, 50 μL of plasma was transferred into a 2.0 mL Eppendorf tube. 50 μL of 0.1N HCl and 800 μL ethyl acetate were added into each sample. The sample mixture was vortexed for approximately 3 min.
# [1] = female, SD, rat, in vivo, iv, 1.25 mg/kg, 153 in plasma, IV 1.25 mg/kg, Mean
# [2] = female, SD, rat, in vivo, iv, 1.25 mg/kg, 153 in plasma, IV 1.25 mg/kg, rat 1
# [3] = female, SD, rat, in vivo, iv, 1.25 mg/kg, 153 in plasma, IV 1.25 mg/kg, rat 2
structure (smiles),measurement,setting,value
"CCCOC(=O)C1C2CCC(O2)C1C(=O)N1CCN(C)CC1 (stereo not drawn) [Compound 153, 3-(4-Methylpiperazine-1-carbonyl)-7-oxa-bicyclo[2,2,1]heptane-2-carboxylic acid propyl ester]",F,"153, PO 1.25 mg/kg vs IV 1.25 mg/kg, Mean",55.41%
same,conversion to endothal in the plasma (statement),153 administered to rats,converted to endothal
same,Tmax,"153 in plasma, IV 1.25 mg/kg, Mean",15 min
same,Tmax,"153 in plasma, IV 1.25 mg/kg, rat 2",15 min
same,Tmax,"153 in plasma, PO 1.25 mg/kg, rat 2",30 min
same,AUClast of 153 in brain,153 iv 1.25 mg/kg,39.4 ng·h/g
same,AUClast of 153 in liver,153 iv 1.25 mg/kg,500 ng·h/g
same,oral availability of 153 (statement),153 po 1.25 mg/kg,orally available
same,AUC,"Brain, 1.25 mg/kg IV, Mean",39.4 ng·h/mL
same,AUC0-∞,"Brain, 1.25 mg/kg IV, Mean",39.35 ng·h/mL
same,Tmax,"Brain, 1.25 mg/kg IV, Mean",15 min
same,AUC,"Brain, 1.25 mg/kg IV, rat 1",39.2 ng·h/mL
same,AUC0-∞,"Brain, 1.25 mg/kg IV, rat 1",39.2 ng·h/mL
same,Tmax,"Brain, 1.25 mg/kg IV, rat 1",15 min
same,AUC,"Brain, 1.25 mg/kg IV, rat 2",39.5 ng·h/mL
same,AUC0-∞,"Brain, 1.25 mg/kg IV, rat 2",39.5 ng·h/mL
same,Tmax,"Brain, 1.25 mg/kg IV, rat 2",15 min
same,AUC,"Liver, 1.25 mg/kg IV, Mean",500 ng·h/mL
same,AUC0-∞,"Liver, 1.25 mg/kg IV, Mean",500 ng·h/mL
same,AUC,"Liver, 1.25 mg/kg IV, rat 1",547 ng·h/mL
same,AUC0-∞,"Liver, 1.25 mg/kg IV, rat 1",547 ng·h/mL
same,Tmax,"Liver, 1.25 mg/kg IV, rat 1",15 min
same,AUC,"Liver, 1.25 mg/kg IV, rat 2",453 ng·h/mL
same,AUC0-∞,"Liver, 1.25 mg/kg IV, rat 2",453 ng·h/mL
same,Tmax,"Liver, 1.25 mg/kg IV, rat 2",15 min
same,153 plasma concentration (title) / Liver concentration,"1.25 mg/kg, 6 hr, Rat 1",BLQ
same,153 plasma concentration (title) / Liver concentration,"1.25 mg/kg, 6 hr, Rat 2",BLQ
same,153 plasma concentration (title) / Liver concentration,"1.25 mg/kg, 10 hr, Rat 1",BLQ
same,Tmax,"female, SD, in vivo, 153 in plasma, IV 1.25 mg/kg, rat 1, read-out: Tmax",15 min
same,Tmax,"female, SD, in vivo, 153 in plasma, PO 1.25 mg/kg, rat 1, read-out: Tmax",30 min
same,AUC(0-inf),[1],296 ng·h/mL
same,AUC,"female, SD, rat, in vivo, iv, 1.25 mg/kg, 153 in plasma, IV 1.25 mg/kg, Mean, read-out: AUC",295 ng·h/mL
same,Cmax,"female, SD, rat, in vivo, iv, 1.25 mg/kg, 153 in plasma, IV 1.25 mg/kg, Mean, read-out: Cmax",557 ng/mL
same,MRT last,[1],39.4 min
same,half-life,"female, SD, rat, in vivo, iv, 1.25 mg/kg, 153 in plasma, IV 1.25 mg/kg, Mean, read-out: T1/2 (converted)",55.3 min
same,AUC(0-inf),[2],303 ng·h/mL
same,AUC,"female, SD, rat, in vivo, iv, 1.25 mg/kg, 153 in plasma, IV 1.25 mg/kg, rat 1, read-out: AUC",303 ng·h/mL
same,Cmax,"female, SD, rat, in vivo, iv, 1.25 mg/kg, 153 in plasma, IV 1.25 mg/kg, rat 1, read-out: Cmax",563 ng/mL
same,MRT last,[2],40 min
same,half-life,"female, SD, rat, in vivo, iv, 1.25 mg/kg, 153 in plasma, IV 1.25 mg/kg, rat 1, read-out: T1/2 (converted)",54.4 min
same,AUC(0-inf),[3],288 ng·h/mL
same,AUC,"female, SD, rat, in vivo, iv, 1.25 mg/kg, 153 in plasma, IV 1.25 mg/kg, rat 2, read-out: AUC",288 ng·h/mL
same,Cmax,"female, SD, rat, in vivo, iv, 1.25 mg/kg, 153 in plasma, IV 1.25 mg/kg, rat 2, read-out: Cmax",550 ng/mL
same,MRT last,[3],38.8 min
same,half-life,"female, SD, rat, in vivo, iv, 1.25 mg/kg, 153 in plasma, IV 1.25 mg/kg, rat 2, read-out: T1/2 (converted)",56 min
same,half-life,"female, SD, rat, in vivo, iv, 1.25 mg/kg, 153 iv 1.25 mg/kg, read-out: T1/2 of 153 in brain (converted)",35.8 min
same,half-life,"female, SD, rat, in vivo, iv, 1.25 mg/kg, 153 iv 1.25 mg/kg, read-out: T1/2 of 153 in liver (converted)",37.6 min
same,half-life,"female, SD, rat, in vivo, iv, 1.25 mg/kg, 153 iv 1.25 mg/kg, read-out: T1/2 of 153 in plasma (converted)",55.3 min
same,Cmax,"female, SD, rat, in vivo, iv, 1.25 mg/kg, 153 iv 1.25 mg/kg, read-out: mean Cmax of 153 in brain",42.7 ng/g
same,Cmax,"female, SD, rat, in vivo, iv, 1.25 mg/kg, 153 iv 1.25 mg/kg, read-out: mean Cmax of 153 in liver",762 ng/g
same,Cmax,"female, SD, rat, in vivo, iv, 1.25 mg/kg, 153 iv 1.25 mg/kg, read-out: mean Cmax of 153 in plasma",557 ng/mL
same,Cmax,"female, SD, rat, in vivo, iv, 1.25 mg/kg, Liver, 1.25 mg/kg IV, rat 1, read-out: Cmax",872 ng/g
same,MRT last,"female, SD, rat, in vivo, iv, 1.25 mg/kg, Liver, 1.25 mg/kg IV, rat 1",44.7 min
same,half-life,"female, SD, rat, in vivo, iv, 1.25 mg/kg, Liver, 1.25 mg/kg IV, rat 1, read-out: T1/2 (converted)",36.5 min
same,Cmax,"female, SD, rat, in vivo, iv, 1.25 mg/kg, Liver, 1.25 mg/kg IV, rat 2, read-out: Cmax",652 ng/g
same,MRT last,"female, SD, rat, in vivo, iv, 1.25 mg/kg, Liver, 1.25 mg/kg IV, rat 2",49.5 min
same,concentration at 0.25 h,"female, SD, rat, in vivo, iv, 1.25 mg/kg, iv 1.25 mg/kg, Mean, read-out: 153 brain concentration",42.7 ng/g
same,concentration at 0.25 h,"female, SD, rat, in vivo, iv, 1.25 mg/kg, iv 1.25 mg/kg, Mean, read-out: 153 liver concentration",762 ng/g
same,concentration at 0.25 h,"female, SD, rat, in vivo, iv, 1.25 mg/kg, iv 1.25 mg/kg, Mean, read-out: 153 plasma concentration",557 ng/mL
same,concentration at 0.25 h,"female, SD, rat, in vivo, iv, 1.25 mg/kg, iv 1.25 mg/kg, Rat 1, read-out: 153 brain concentration",45 ng/g
same,concentration at 0.25 h,"female, SD, rat, in vivo, iv, 1.25 mg/kg, iv 1.25 mg/kg, Rat 1, read-out: 153 liver concentration",872 ng/g
same,concentration at 0.25 h,"female, SD, rat, in vivo, iv, 1.25 mg/kg, iv 1.25 mg/kg, Rat 1, read-out: 153 plasma concentration",563 ng/mL
same,concentration at 0.25 h,"female, SD, rat, in vivo, iv, 1.25 mg/kg, iv 1.25 mg/kg, Rat 2, read-out: 153 brain concentration",40.3 ng/g
same,concentration at 0.25 h,"female, SD, rat, in vivo, iv, 1.25 mg/kg, iv 1.25 mg/kg, Rat 2, read-out: 153 liver concentration",652 ng/g
same,concentration at 0.25 h,"female, SD, rat, in vivo, iv, 1.25 mg/kg, iv 1.25 mg/kg, Rat 2, read-out: 153 plasma concentration",550 ng/mL
same,concentration at 1 h,"female, SD, rat, in vivo, iv, 1.25 mg/kg, iv 1.25 mg/kg, 1 hr, Mean, read-out: 153 brain concentration",14.1 ng/g
